Measured values reported in paper PMC7287874 (2020).

Legend:
[1] = tested on: GR wild type (xpt-pbuX guanine riboswitch aptamer) (RNA, riboswitch) GGACAUAUAAUCGCGUGGAUAUGGCACGCAAGUUUCUACCGGGCACCGUAAAUGUCCGACUAUGUCCA; assay: ITC; conditions: 100 mM KCl, 20 mM MgCl2, 50 mM K-HEPES, pH 7.5, 25 °C; for KD: single-site fit; for binding: no binding, highest concentration for this compound not stated
[2] = tested on: GR RNA, crystallized (RNA, riboswitch) GGACAUAUAAUCGCGUGGAUAUGGCACGCAAGUUUCUACCGGGCACCGUAAAUGUCCGACUAUGUCC; assay: X-ray crystallography; conditions: cobalt hexammine 30–50 mM, ammonium acetate 600–650 mM, 10 mM K-HEPES pH 7.5, PEG 3000, 24 °C
[3] = tested on: GR(A19C-U77G) (RNA, riboswitch) GGACCUAUAAUCGCGUGGAUAUGGCACGCAAGUUUCUACCGGGCACCGUAAAUGUCCGACUAGGUCCA; assay: ITC; conditions: 100 mM KCl, 20 mM MgCl2, 50 mM K-HEPES; pH 7.5, 25 °C, single-site fit
[4] = tested on: GR(C74U) (RNA, riboswitch) GGACAUAUAAUCGCGUGGAUAUGGCACGCAAGUUUCUACCGGGCACCGUAAAUGUCCGAUUAUGUCCA; assay: ITC; conditions: 100 mM KCl, 20 mM MgCl2, 50 mM K-HEPES; pH 7.5, 25 °C, single-site fit
[5] = tested on: GR(C74G) (RNA, riboswitch) GGACAUAUAAUCGCGUGGAUAUGGCACGCAAGUUUCUACCGGGCACCGUAAAUGUCCGAGUAUGUCCA; assay: ITC; conditions: 100 mM KCl, 20 mM MgCl2, 50 mM K-HEPES; pH 7.5, 25 °C, single-site fit
[6] = tested on: GR(C74A) (RNA, riboswitch) GGACAUAUAAUCGCGUGGAUAUGGCACGCAAGUUUCUACCGGGCACCGUAAAUGUCCGAAUAUGUCCA; assay: ITC; conditions: 100 mM KCl, 20 mM MgCl2, 50 mM K-HEPES; pH 7.5, 25 °C, single-site fit
[7] = tested on: GR A19G U77C (RNA, riboswitch) GGACGUAUAAUCGCGUGGAUAUGGCACGCAAGUUUCUACCGGGCACCGUAAAUGUCCGACUACGUCCA; assay: ITC; conditions: 100 mM KCl, 20 mM MgCl2, 50 mM K-HEPES; pH 7.5, 25 °C, single-site fit
[8] = tested on: GR A19G U77 (RNA, riboswitch) GGACGUAUAAUCGCGUGGAUAUGGCACGCAAGUUUCUACCGGGCACCGUAAAUGUCCGACUAUGUCCA; assay: ITC; conditions: 100 mM KCl, 20 mM MgCl2, 50 mM K-HEPES; pH 7.5, 25 °C, single-site fit
[9] = tested on: GR A19U U77A (RNA, riboswitch) GGACUUAUAAUCGCGUGGAUAUGGCACGCAAGUUUCUACCGGGCACCGUAAAUGUCCGACUAAGUCCA; assay: ITC; conditions: 100 mM KCl, 20 mM MgCl2, 50 mM K-HEPES; pH 7.5, 25 °C, single-site fit
[10] = tested on: GR A19C C74U U77G (RNA, riboswitch) GGACCUAUAAUCGCGUGGAUAUGGCACGCAAGUUUCUACCGGGCACCGUAAAUGUCCGAUUAGGUCCA; assay: ITC; conditions: 100 mM KCl, 20 mM MgCl2, 50 mM K-HEPES; pH 7.5, 25 °C, single-site fit
[11] = tested on: GR A19G C74U U77C (RNA, riboswitch) GGACGUAUAAUCGCGUGGAUAUGGCACGCAAGUUUCUACCGGGCACCGUAAAUGUCCGAUUACGUCCA; assay: ITC; conditions: 100 mM KCl, 20 mM MgCl2, 50 mM K-HEPES; pH 7.5, 25 °C, single-site fit
[12] = tested on: GR A19U C74U U77A (RNA, riboswitch) GGACUUAUAAUCGCGUGGAUAUGGCACGCAAGUUUCUACCGGGCACCGUAAAUGUCCGAUUAAGUCCA; assay: ITC; conditions: 100 mM KCl, 20 mM MgCl2, 50 mM K-HEPES; pH 7.5, 25 °C, single-site fit

With CC(=O)Nc1nc2[nH]cnc2c(=O)[nH]1 the KD [1] was 300 ± 10 nM and the binding [2] was “yes”.

For CC(C)(C)C(=O)Nc1nc2[nH]cnc2c(=O)[nH]1, the KD [1] was 230,000 ± 10,000 nM.

Molecule CC(C)C(=O)Nc1nc2[nH]cnc2c(=O)[nH]1 has a KD [1] of 7.4 ± 0.5 nM and a KD [3] of 4.5 ± 2.0 nM.

In the case of CC1CC(O)n2c(nc3[nH]cnc3c2=O)N1 (stereo not shown), the KD [1] is reported as 79,000 ± 1000 nM.

CNc1nc2[nH]cnc2c(=O)[nH]1 was tested, and the KD [1] was 17,000 ± 1000 nM.

With COc1nc(N)nc2[nH]cnc12 the KD [1] was 6400 ± 400 nM.

NS(=O)(=O)c1ccc(Nc2nc(OCC3CCCCC3)c3nc[nH]c3n2)cc1 gave a KD [1] of 5600 ± 600 nM.

With Nc1nc(Cl)c2[nH]cnc2n1 the KD [1] was 340 ± 30 nM.

In the case of Nc1nc(NC2CC2)c2nc[nH]c2n1, the KD [1] is reported as 25,000 ± 3000 nM.

With Nc1nc(OCC2CCCCC2)c2[nH]cnc2n1 the KD [1] was 17,000 ± 1000 nM and the binding [2] was “yes”.

With Nc1nc(OCc2ccccc2)c2[nH]cnc2n1 the binding [1] was “no”.

With Nc1nc2[nH]c(N)nc2c(=O)[nH]1 the KD [1] was 36 ± 13 nM and the binding [2] was “yes”.

Nc1nc2[nH]c(O)nc2c(=O)[nH]1 showed a KD [1] of 10 ± 4 nM.

For Nc1nc2[nH]cnc2c(=O)[nH]1, the KD [1] was 2.1 ± 0.7 nM, the KD [3] was 0.85 ± 0.31 nM and the binding ([2]; 1.6 Å) was “yes”.

With Nc1nc2c(=O)[nH]cnc2[nH]1 the KD [1] was 14,000 ± 1000 nM.

In the case of O=C(COc1ccccc1)Nc1nc2[nH]cnc2c(=O)[nH]1, the KD [1] is reported as 8.8 ± 0.5 nM, the KD [4] is reported as 7500 ± 800 nM and the KD [5] is reported as 42,000 ± 2000 nM. The KD [6] was 85,000 ± 25,000 nM, the KD [3] was 2.2 ± 0.6 nM and the KD [7] was 4.9 ± 1.2 nM. The KD [8] was 5.4 ± 1.2 nM, the KD [9] was 7.8 ± 1.6 nM and the KD [10] was 4100 ± 400 nM. The KD [11] was 44,000 ± 4000 nM and the KD [12] was 66,000 ± 5000 nM.

Work on O=c1[nH]cnc2nc[nH]c12 yielded a KD [1] of 240 ± 30 nM.

In the case of O=c1c2[nH]cnc2nc2ncccn12, the binding [1] is reported as “no”.
